Source: patent publication US20220265775A1, “COMPOSITIONS AND METHODS FOR TREATING PULMONARY EDEMA OR LUNG INFLAMMATION” (priority 2019, published 2022)

Test: Preliminary tolerability of intratracheal instillation of liothyronine sodium in rats
Format: in vivo
Conditions: preliminary studies, pH of >10.0 as supplied commercially
Procedure: Therefore, the liothyronine sodium and the vehicle were adjusted to neutral pH (6.0-8.0) with sterile 1.0 N HCl (Sigma-Aldrich, St. Louis, Mo.) added aseptically in a biosafety cabinet prior to intratracheal instillation into animals. Using aseptic technique, vials of liothyronine sodium were opened and the entire contents were transferred into sterile 1.5 mL Eppendorf tubes. 80-90 μL of 1.0 N HCl was added to the tube and gently vortexed, and the pH was measured using pH test strips (pH 4.5 to 10.0, Ricca Chemical Co., Arlington, Tex.). Additional HCl was titrated in gradually, as needed, until the pH was in the desired range. […] This solution was stored at 4° C. and used for up to 26 hours after pH adjustment procedure. […] The vehicle was also adjusted to neutral pH (6.0-8.0) with 1.0 N HCl as described above. Using aseptic technique the vehicle was filter sterilized and aliquoted into 21 sterile disposable tubes (5 mL each) and stored at 4° C., and a new tube was opened for each day of use. Normal Saline (0.9% Sodium Chloride Injection USP, B. Braun Medical, Inc., Bethlehem, Pa.), was stored at room temperature. A new package was opened for each day of use.

For `N[C@@H](Cc1cc(I)c(Oc2ccc(O)c(I)c2)c(I)c1)C(=O)O` [T3, triiodothyronine], the “tolerability of intratracheal instillation” value was “do not tolerate”.
